{"source": "paper PMC6203393", "about": "“Identification of novel antimicrobial peptide from Asian sea bass (Lates calcarifer) by in silico and activity characterization” (PLoS ONE, 2018)", "key": {"E.coli": {"test_system": "E.coli", "assay": "Binding affinity to bacteria, cell-based fluorometric ELISA, salt effect", "design": "species or system Escherichia coli", "settings": "in the presence of 10 mM MgCl2; 5-FAM-labeled peptide 2.5μg/ml, 2 hours at 37°C; fluorescence 490/560 nm", "protocol": "Antimicrobial peptides bind to the bacterial cell wall through an electrostatic interaction between the positive charge of AMPs with the negative charge of the bacterial cell wall. […] To determine optimal binding conditions, different concentrations of the bacteria (12.5×10^7, 25×10^7, 5×10^8, 1×10^9 cell/ml) and 5-FAM-labeled peptide (1.25, 2.5, 5, and 10 μg/ml) were prepared. Bacterial suspension from each bacterial concentration was added to 4 wells of Maxisorp 96-well microplates (each well 100 μl) and incubated for 3 hours at 37°C without agitation. The planktonic cells were carefully discarded by pipetting and the adherent cells were washed three times with PBS buffer (pH 7.4). Bacteria were fixed with 100 μl of 4% paraformaldehyde and incubated for 0.5 hours at 37°C. The paraformaldehyde was removed and the wells were washed three times with PBS buffer (pH 7.4). The wells were air-dried and fixed cells were confirmed with an inverted microscope. […] After three washing steps with PBS-T buffer, the fluorescence intensity was measured using a fluorescence microplate reader (BioTek Synergy 4, USA) at 490/560 nm (Ex/Em). […] Under the optimized conditions, the binding affinity of both peptides to bacteria was assessed. […]"}, "E. faecalis [1]": {"test_system": "E. faecalis", "assay": "Antibiofilm assay, pH effect (crystal violet)", "format": "cell-based, Enterococcus faecalis", "settings": "peptide at 1/32×MIC, BHI pH 7.4, 8.5, 9.5, 10.5, 24 hours, 595 nm"}, "[2]": {"test_system": "Escherichia coli (ATCC 25922)", "format": "cell-based", "settings": "for increase of MIC value: E.coli", "protocol": "(§1) Briefly, a series of two-fold dilutions of each peptide(300, 150, 75, 37.5, 18.75, 9.37, 4.68 and 2.34μg/ml) was created with 0.01% acetic acid and 0.2% BSA (bovine serum albumin) and then 50 μl of each peptide dilution was added to each well of polystyrene flat bottom 96-well microplate (Sigma-Aldrich, Germany). Microbial suspension was diluted with BHI medium or RPMI medium to provide density of 1×10^6 cell/ml and 50 μl of diluted microbial suspension was added to wells containing 50 μl of peptide solution, providing a final concentration of 5×10^5 cell/ml and incubated for 18 hours at 37 °C. The sterility control well contained 100 μl of BHI (or RPMI), while the growth control well contained 100 μl of microbial suspension (5×10^5 cell/ml). The MIC values was defined as the lowest peptide concentration that prevented visible growth of the bacteria. Three independent tests were performed for each peptide concentration.\nIn the next step, the pH and salt concentration effect on MIC of AMPs were assayed. To evaluate the effect of cations on the antibacterial activity of AMPs, bacteria were cultured in the BHI medium containing increased concentrations of monovalent or divalent salt including NaCl (62,125,250 and 500 mM), MgCl2 (1,5, 10 and 30 mM), respectively."}, "[3]": {"test_system": "clinical A. baumannii isolate", "assay": "Time-kill analysis", "format": "cell-based, Acinetobacter baumannii", "settings": "5×10^5 cell/ml in BHI, 37°C, bactericidal = ≥3-log10 reduction, mean of two independent experiments", "protocol": "Time-Kill assay was performed to investigate bactericidal activity of both peptides against antibiotic resistant bacteria including S. aureus (MRSA), and clinical A. baumannii isolate. […] Colony count was performed after incubation at 37°C for 0, 2, 4, 8, 12 and 24 h by plating of 10-fold dilutions on LB agar. […] The lower limit of detection for time-kill assays was 2 log10 CFU/ml."}, "[4]": {"assay": "RP HPLC retention time of peptides", "format": "physicochemical", "settings": "Inertsil ODS-SP 4.6*250 mm 5μm, linear 0–100% acetonitrile with 0.1% trifluoroacetic acid, 1ml/minute, 30 minutes, highest peak in 214 nm, used as hydrophobicity measure", "protocol": "The retention time of the peptides were calculated by RP HPLC using an analytical SHIMADZU Inertsil ODS-SP (4.6*250 mm* 5μm) column. A linear gradient of 0–100% acetonitrile supplemented with 0.1% trifluoroacetic acid was used to elute peptides at a flow rate 1ml/minute for 30 minutes. The highest peak in 214 nm was considered as the retention time for each peptide."}, "[5]": {"test_system": "Acinetobacterbaumannii(Clinical isolate)", "format": "cell-based, Acinetobacter baumannii", "settings": "Brain heart infusion; 5×10^5 cell/ml; 18 hours at 37 °C; three independent tests", "protocol": "as §1"}, "[6]": {"test_system": "Enterococcus faecalis (ATCC:6057)", "assay": "MIC at different pH values", "format": "cell-based", "settings": "37°C for 18 hours", "protocol": "The antibacterial activity of both peptides were assessed against Enterococcus faecalis, a bacteria resistance to alkaline environments (ATCC:6057), at different pH values (pH range: 7.4, 8.5, 9.5, or 10.5). The bacteria were cultured in the BHI medium adjusted to varying pH values (pH range: 7.4, 8.5, 9.5, and 10.5). After incubation at 37°C for 18 hours, the MIC values were determined."}, "E. faecalis [7]": {"test_system": "E. faecalis", "assay": "Antiadhesive assay, pH effect (crystal violet)", "format": "cell-based, Enterococcus faecalis", "settings": "peptide at 1/32×MIC, BHI pH 7.4, 8.5, 9.5, 10.5, 1 hour, 595 nm"}, "[8]": {"test_system": "Candida glabrata(clinical isolate)", "format": "cell-based", "settings": "RPMI medium; 5×10^5 cell/ml; 18 hours at 37 °C; three independent tests", "protocol": "as §1"}, "[9]": {"test_system": "Staphylococcus epidermidis (ATCC 1435)", "format": "cell-based", "settings": "Brain heart infusion; 5×10^5 cell/ml; 18 hours at 37 °C; three independent tests", "protocol": "as §1"}, "[10]": {"test_system": "Staphylococcus aureus(MRSA)", "format": "cell-based", "settings": "Brain heart infusion; 5×10^5 cell/ml; 18 hours at 37 °C; three independent tests", "protocol": "as §1"}, "[11]": {"test_system": "Staphylococcus aureus(ATCC 25923)", "format": "cell-based", "settings": "Brain heart infusion; 5×10^5 cell/ml; 18 hours at 37 °C; three independent tests", "protocol": "as §1"}, "[12]": {"test_system": "Candida tropicalis(clinical isolate)", "format": "cell-based", "settings": "RPMI medium; 5×10^5 cell/ml; 18 hours at 37 °C; three independent tests", "protocol": "as §1"}, "[13]": {"test_system": "Pseudomonas aeruginosa (ATCC10662)", "format": "cell-based", "settings": "Brain heart infusion; 5×10^5 cell/ml; 18 hours at 37 °C; three independent tests", "protocol": "as §1"}, "[14]": {"test_system": "Candida albicans (clinical isolate)", "format": "cell-based", "settings": "RPMI medium; 5×10^5 cell/ml; 18 hours at 37 °C; three independent tests", "protocol": "as §1"}}, "note": "Where two headings read alike, the source gives them in different places.", "data": [{"sequence": "FLRSLLRGAKAIYRGARAGWRG [Dicentracin-like, 22-amino-acid mature AMP from Asian sea bass; synthesized with N-terminal 5-FAM and amidated C-terminus]", "values": [{"measurement": "reduction in affinity binding to bacteria", "setting": "E.coli", "value": 1.6, "unit": "fold"}, {"measurement": "antibiofilm activity (biofilm formation relative to corresponding control)", "setting": "E. faecalis [1]", "value": "significantly decrease the bacterial adhesion and biofilm formation at pH values from 7.4 to 9.5"}, {"measurement": "Activity (MIC) against E.coli", "setting": "[2]; BHI medium with MgCl2 1 mM", "value": 4.68, "unit": "µg/mL"}, {"measurement": "Activity (MIC) against E.coli", "setting": "[2]; BHI medium with MgCl2 5 mM", "value": 18.75, "unit": "µg/mL"}, {"measurement": "Activity (MIC) against E.coli", "setting": "[2]; BHI medium with MgCl2 10 mM", "value": 18.75, "unit": "µg/mL"}, {"measurement": "Activity (MIC) against E.coli", "setting": "[2]; BHI medium with MgCl2 30 mM", "value": 75, "unit": "µg/mL"}, {"measurement": "Activity (MIC) against E.coli", "setting": "[2]; BHI medium with NaCl 62 mM", "value": 4.68, "unit": "µg/mL"}, {"measurement": "Activity (MIC) against E.coli", "setting": "[2]; BHI medium with NaCl 125 mM", "value": 4.68, "unit": "µg/mL"}, {"measurement": "Activity (MIC) against E.coli", "setting": "[2]; BHI medium with NaCl 250 mM", "value": 6.05, "unit": "µg/mL"}, {"measurement": "Activity (MIC) against E.coli", "setting": "[2]; BHI medium with NaCl 500 mM", "value": 9.37, "unit": "µg/mL"}, {"measurement": "minimum inhibitory concentration (MIC)", "setting": "[2]; Brain heart infusion, 5×10^5 cell/ml, 18 hours at 37 °C, lowest concentration preventing visible growth, three independent tests", "value": 4.68, "unit": "µg/mL"}, {"measurement": "increase of MIC value", "setting": "[2]; in the presence of 5 mM and 10 mM MgCl2, MIC (MgCl2) /MIC", "value": 4, "unit": "fold"}, {"measurement": "increase of MIC value", "setting": "[2]; in the presence of 30 mM MgCl2", "value": 16, "unit": "fold"}, {"measurement": "increase of MIC value", "setting": "[2]; in the presence of 500 mM NaCl", "value": 2, "unit": "fold"}, {"measurement": "Activity (MIC) against E.coli", "setting": "[2]; Physiological salt concentrations (150 mM NaCl 3 mM CaCl2 2 mM MgCl2)", "value": 4.68, "unit": "µg/mL"}, {"measurement": "time after which bactericidal effect was observed", "setting": "[3]; 1XMIC", "value": 4, "unit": "h"}, {"measurement": "time after which bactericidal effect was observed", "setting": "[3]; 2XMIC", "value": 2, "unit": "h"}, {"measurement": "retention time (main peak)", "setting": "[4]", "value": 20.518, "unit": "min"}, {"measurement": "minimum inhibitory concentration (MIC)", "setting": "[5]", "value": 18.75, "unit": "µg/mL"}, {"measurement": "MIC(fold increase)", "setting": "[6]; BHI medium pH 7.4", "value": 1, "unit": "fold"}, {"measurement": "MIC(fold increase)", "setting": "[6]; BHI medium pH 8.5", "value": 1, "unit": "fold"}, {"measurement": "MIC(fold increase)", "setting": "[6]; BHI medium pH 8.5, listed as dicentracin-like", "value": "no reduction"}, {"measurement": "MIC(fold increase)", "setting": "[6]; BHI medium pH 9.5", "value": 2, "unit": "fold"}, {"measurement": "MIC(fold increase)", "setting": "[6]; BHI medium pH 10.5", "value": 4, "unit": "fold"}, {"measurement": "antiadhesive activity (bacterial adhesion relative to corresponding control)", "setting": "E. faecalis [7]", "value": "significantly decrease the bacterial adhesion and biofilm formation at pH values from 7.4 to 9.5"}, {"measurement": "minimum inhibitory concentration (MIC)", "setting": "[8]", "value": ">150", "unit": "µg/mL"}, {"measurement": "minimum inhibitory concentration (MIC)", "setting": "[9]", "value": 1.17, "unit": "µg/mL"}, {"measurement": "minimum inhibitory concentration (MIC)", "setting": "[10]", "value": 4.68, "unit": "µg/mL"}, {"measurement": "minimum inhibitory concentration (MIC)", "setting": "[11]", "value": 4.68, "unit": "µg/mL"}, {"measurement": "minimum inhibitory concentration (MIC)", "setting": "[12]", "value": "4.68 to 9.37", "unit": "µg/mL"}, {"measurement": "minimum inhibitory concentration (MIC)", "setting": "[13]", "value": 37.5, "unit": "µg/mL"}, {"measurement": "minimum inhibitory concentration (MIC)", "setting": "[14]", "value": "4.68 to 9.37", "unit": "µg/mL"}]}]}
